PMC10799935, “Discovery of a peripheral 5HT2A antagonist as a clinical candidate for metabolic dysfunction-associated steatohepatitis” (Nature Communications, 2024)
“Also recorded” adds a separate entry of the source. Read-outs that look alike come from different tables or passages of the source.

Columns and labels:
5HT2B (h) = target: T1, 5HT2B (h) (Homo sapiens, UniProt P41595); assay: 5HT subtype antagonism assay (Eurofins Cerep): 5HT2B; assay type: cell-based
T1 construct: host or cells: CHO cells
Description: The derivatives were evaluated at a concentration of 1 μM for their antagonist activity on the 5HT2A receptor (Tables 1–3)[33],[34]. Human 5HT2A stably transfected HEK293 cells (a type of cell derived from kidney embryos)[20] were seeded in a 96-well plate (Costar; 3603) at a density of 9 × 10^4 in 100 μL of minimum essential medium (Welgene; LM007-86) containing 10% dialyzed fetal bovine serum (Gibco; 30067–334) and 1% penicillin/streptomycin (Gibco; 15140-122) and kept in a 37 °C incubator for 24 h. The cells were stained with 100 μL of cytosolic calcium dye using the FLIPR calcium 6 assay solution (Molecular devices, #R8190) supplemented with 2.5 mM probenecid (Sigma; P8761) and incubated for 1 h at 37 °C. After 1 h, the designated amount of the compound was treated in each well and incubated for another 1 h at 37 °C. Then, the cells were loaded in a Flexstation 3 microplate reader (Molecular Devices; FlexStaion) and 50 μL of 5 μM 5HT (serotonin hydrochloride, Sigma; H9523) was injected from a source plate (Nunc 96-well polystyrene conical bottom MicroWell Plate, Thermo; 249662) and the fluorescence intensity (Ex/Em-485nm/ 525 nm) was measured. […]
Antagonism assay Source Stimulus Incubation Measured Detection Method […]

[1] = AMES test (mutagenic potential)
[2] = Pharmacokinetic study in rats; assay type: in vivo, Sprague-Dawley rats; settings: rat
Description: The experimental protocol for this study was approved by the IACUC of KPC Co., Ltd. (No. KPC IACUC-P203046; Beagle dogs) or QuBEST BIO (No.QBIACUC-A20131). All relevant ethical guidelines were followed. Beagle male dogs (11 ~ 20 months old) were purchased from ORIENT BIO Inc. and were housed in the barrier animal facility of KPC Co., Ltd. under a regular light-dark cycle (12-hour light/12-hour dark) at 21.1–23.4°C with 55.3–72.2% humidity. Food (standard irradiated pelleted commercial laboratory diet, Cargill Agri Purina, 300 g/dog.day) and water were provided ad libitum. All study dogs were returned to the laboratory colony after the study without any euthanasia. Sprague-Dawley male rats (7 weeks old) were purchased from SAMTAKOBIOKOREA, Inc. and were housed in the barrier animal facility of Nonclinical Research Center, QuBEST BIO under a regular light-dark cycle (12-hour light/12-hour dark) at 19.7–22.7°C with 54.5–65.6% humidity. Food (standard irradiated pelleted commercial laboratory diet, Purina Rodent Chow, 38057) and water were provided ad libitum. All study rats were euthanized by CO2 gas upon study completion.
Blood samples were collected at the scheduled times up to 24 h post-dose (IV: 0.083, 0.25, 0.5, 1, 2, 4, 8, 12 and 24 h post-dose, PO: 0.25, 0.5, 1, 2, 4, 8, 12 and 24 h post-dose). Determination of compound 11c in plasma was performed by UHPLC-MS/MS. Pharmacokinetic parameters were calculated by noncompartmental analysis using Phoenix® WinNonlin® (Ver. 8.3‘, Certara).

in vitro = settings: human
[3] = male, Sprague-Dawley, plasma, 5 mg/kg, IV (5 mpk)

T1 sequence (P41595 whole entry): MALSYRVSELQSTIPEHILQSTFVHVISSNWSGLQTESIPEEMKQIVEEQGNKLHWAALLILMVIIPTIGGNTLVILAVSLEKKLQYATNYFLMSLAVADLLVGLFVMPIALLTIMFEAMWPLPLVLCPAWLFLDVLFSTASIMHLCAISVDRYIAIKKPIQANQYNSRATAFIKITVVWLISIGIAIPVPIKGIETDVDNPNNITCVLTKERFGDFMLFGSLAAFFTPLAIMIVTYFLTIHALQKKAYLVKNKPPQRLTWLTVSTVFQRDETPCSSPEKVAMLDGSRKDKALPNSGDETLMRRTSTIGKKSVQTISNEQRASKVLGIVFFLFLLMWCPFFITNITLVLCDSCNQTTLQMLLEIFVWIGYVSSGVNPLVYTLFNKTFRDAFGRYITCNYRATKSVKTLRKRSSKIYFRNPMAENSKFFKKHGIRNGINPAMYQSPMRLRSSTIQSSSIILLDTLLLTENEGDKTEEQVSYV

With `Cc1nc2n(c(=O)c1CCN1CCC(=C3c4ccc(Cl)cc4CCc4cccnc43)CC1)CCCC2O` (stereo not shown) [Compound 11c] the “Selectivity 2B: % inhibition” value (5HT2B (h); concentration not given) was 94%, the IC50 (5HT2B (h); read-out: Selectivity 2B: IC50) was 290 nM and the AMES [1] was “didn’t show mutagenic potential; also recorded: Negative”. The AUC [2, 3] was 1550 ng·h/mL, the clearance [2, 3] was 47 mL/min/kg and the AUC ([2]; male, Sprague-Dawley, plasma, 5 mg/kg, PO (5 mpk)) was 980 ng·h/mL. It also gave a bioavailability ([2]; male, Sprague-Dawley, plasma, 5 mg/kg, PO (5 mpk), read-out: F (%)) of 63%, an AUC ([2]; male, Sprague-Dawley, plasma, 10 mg/kg, PO (10 mpk)) of 2880 ng·h/mL and a bioavailability ([2]; male, Sprague-Dawley, plasma, 10 mg/kg, PO (10 mpk), read-out: F (%)) of 92.5%. It also gave a half-life ([2]; male, Sprague-Dawley, plasma, iv, 5 mg/kg, IV (5 mpk)) of 4.14 h, a half-life ([2]; male, Sprague-Dawley, plasma, po, 5 mg/kg, PO (5 mpk)) of 2.5 h and a half-life ([2]; male, Sprague-Dawley, plasma, po, 10 mg/kg, PO (10 mpk)) of 2.7 h. For the same compound, the bioavailability ([2]; male, Sprague-Dawley, plasma, po, rats (summary statement), read-out: oral bioavailability) was > 60%, the “V” value ([2]; IV (5 mpk)) was 8.86 L/kg and the “T1/2” value ([2]; IV (5 mpk), 5 mg/kg) was 4.4 h. The IC50 (in vitro) was > 100000 nM.
